Assay results from US8044201B2, “Stem cell cultures” (The Scripps Research Institute, priority 2008, dated 2011).
Entries after “also recorded” stand apart in the source; their conditions may differ.

Columns and labels:
hESCs [1] = assay: Cell adhesion assay of dissociated hESCs; assay type: cell-based, human
Protocol: Cell adhesion assays were performed in 96-well microtiter plates coated with Matrigel. After trypsin, hESCs were resuspended in the chemically-defined media containing the desired compounds. Cells were then added to the microtiter wells and incubated for 3 h at 37° C. Unbound and loosely bound cells were removed by shaking and washing, and the remaining cells were then fixed immediately. The wells were washed 3 times with 200 μl of H2O, and attached cells were stained with Crystal Violet (Sigma). The absorbance of each well at 570 nm was then measured. For experiments with blocking antibodies, cells were pre-incubated with antibodies on ice for 30 min, and adhesion assays were performed in the presence of antibodies. Each sample was assayed independently for three times.

hESCs [2] = assay: ALP positive colony formation by dissociated hESCs (clonal / low-density survival assay); assay type: cell-based, human; conditions: PKC agonist treatment
Protocol: (§1) Human ESC lines H1, HUES7 and HUES9 were cultured on irradiated MEF feeder cells in DMEM-F12 supplemented with 2 mM L-glutamine, 1× nonessential amino acids, 20% serum replacement (Invitrogen) and 10 ng/ml basic Fibroblast growth factor (Invitrogen). Chemically-defined and feeder-free hESC culture was described previously (Yao, S. et al., Proc Natl Acad Sci USA 103 (18):6907-6912 (2006)). Briefly, hESCs were grown on Matrigel-coated tissue culture plates in N2B27-CDM (DMEM-F12 supplemented with 1× N2 supplements, 1× B27 supplements, 2 mM L-glutamine, 0.11 mM 2-mercaptoethanol, 1× nonessential amino acids, and 0.5 mg/ml BSA (fraction V)) and 20 ng/ml bFGF. Human ESCs were passaged every 5-6 days with 0.05% trypsin.
For clonal survival assays, single hESCs were diluted to clonal density and plated onto 96-well Matrigel-coated plate. For low-density survival assays, 500 cells were plated onto 96-well Matrigel-coated plate. To visualize hESC colonies, cultures were fixed in 4% paraformaldehyde in PBS for 5 min, washed once in PBS, then stained for alkaline phosphatase activity as described in manufacturer's instructions. ALP positive colonies were counted on an inverted microscope.

β1 integrin = assay: Active conformation of β1 integrin in hESCs (HUTS-21 binding, flow cytometry and immunostaining); assay type: cell-based, human; conditions: for level of HUTS-21 binding (activated β1 integrin): trypsin-dissociated hESCs
From the text: To gain insights into the mechanism of β1 integrin regulation by Tzv and Ptn, we investigated whether the compounds' effect is due to changes of integrin expression. In contrast to E-cadherin, β1 integrin was not cleaved by trypsin. […] Thus, Tzv and Ptn are likely to affect cell adhesion by modulating integrin activity (FIGS. 3d,e). To examine the effects of compound treatment on the activity of β1 integrin, we used the monoclonal antibody HUTS-21, which specifically binds to the activated form of the β1 integrin (Luque, A. et al., J Biol Chem 271 (19):11067-11075 (1996)).
(§2) To assess the expression of E-cadherin, activated integrin and SSEA4, dissociated cells (3×10^5) were washed with PBS and resuspended in PBS containing 2% goat serum. Cells were then incubated with the appropriate antibody for 1 h at 4° C., washed with the blocking solution, and labeled with FITC-conjugated secondary antibody for 30 min at 4° C. Cells were then washed and analyzed on a FACS Calibur flow cytometer.

hESCs [3] = assay: Long-term serial passage of hESCs in Tzv or Ptn-containing chemically-defined medium (morphology, pluripotency markers, karyotype); assay type: cell-based, human; conditions: serially passaged for more than 20 generations in compound-containing chemically-defined medium
Protocol: as §1
Immunostaining was performed as described previously (Yao, S. et al., Proc Natl Acad Sci USA 103 (18):6907-6912 (2006)). Briefly, cells were fixed with 4% paraformaldehyde at room temperature (RT) for 15 min. The cells were then incubated at RT in blocking buffer for 1 hour. […]
Teratoma formation experiments were performed by injecting 3-5 million hESCs (maintained in the presence of compounds Tvz or Ptn) under the kidney capsule of nude mice. After 4-5 weeks, all mice developed teratomas, which were removed and then immunohistologically analyzed by The Scripps Research Institute Research Histology Service and Animal Resources. […]

[4] = tested on: human embryonic stem cell, mouse embryonic stem cell, multiple neural stem cells, skin stem cells, mesenchymal stem cells, hematopoietic stem cells, stromal …; assay: Survival and anti-differentiation of stem cells ex vivo after isolation; assay type: cell-based; conditions: contacted immediately after isolation of the cells
From the text: In some embodiments, the invention provides methods of promoting survival and anti-differentiation in stem cells ex-vivo.

hESCs [5] = assay: Cell death / survival analysis of dissociated hESCs in adherent (Matrigel) or suspension culture; assay type: cell-based, human; conditions: for survival of dissociated hESCs in adherent culture: Matrigel-coated plate; for survival of dissociated hESCs in adherent culture / survival of dissociated hESCs in suspension culture: 2 μM
Protocol: as §1
The hESCs under different treatments were dissociated by trypsin and fixed by 4% paraformaldehyde. And the staining was carried out according to the manufacturer's instructions (MBL Laboratories, Watertown, Mass.). After staining, samples were analysed by flow cytometry using a FACS Calibur flow cytometer (BD).

ERK and AKT = assay: Western blot of ERK and AKT phosphorylation in dissociated hESCs; assay type: cell-based, human
growth factor receptor = assay: Western blot of growth factor receptor phosphorylation in hESCs; assay type: cell-based, human; conditions: hESCs treated for 2 h, DMSO control
[6] = tested on: epithelial to mesenchymal transition/EMT; assay: Epithelial to mesenchymal transition (EMT) / MET; assay type: cell-based
E-cadherin = E-cadherin level in hESCs after trypsin dissociation (Western blot, flow cytometry, semiquantitative RT-PCR); assay type: cell-based, human
Protocol: as §2

[7] = tested on: mouse P1 cortical explants; assay: Neurite / axon outgrowth from cortical explants; assay type: cell-based
Protocol: Compounds of formula I and III (i.e., Tvz and Ptn) are effective at promoting axonal regeneration and functional recovery in injured central nervous system. […] Tzv (3 μM) was tested on mouse P1 cortical explants, with axon outgrowth as an outcome read-out. Tzv was added to the medium 20 minutes after plating, with DMSO as a control. […] Accordingly, in some embodiments, a compound of the present invention is administered to an individual having a central nervous system injury or who is in need or would otherwise benefit from axonal regeneration.

[8] = tested on: primary human pancreatic islets/beta cells; assay: Cell death of dispersed primary pancreatic islets/beta cells plated as single cells on matrigel or laminin; assay type: cell-based; conditions: 1-2 mM added to the media
Protocol: For example, the inventors dispersed primary human pancreatic islets/beta cells plated as single cells onto a tissue culture plate that was coated with matrigel or laminin. […] Accordingly, in some embodiments, a compound of the present invention is administered to an individual in need of pancreatic beta and/or islet cells, wherein administration of the compound results in an increase in the number of beta or islet cells in the individual.

[9] = tested on: E-cadherins to EGFR1 and ERB2; assay: Immunoprecipitation of E-cadherins with EGFR1 and ERB2 in hESCs; assay type: cell-based, human
From the text: ALP detection kit and integrin antibodies were from Chemicon. AG825 (Erb2 inhibitor), AG1478 (EGFR inhibitor), PPP (IGFR1 inhibitor) were purchased from Calbiochem. Antibodies raised against the intracytoplasmic tail of E-cadherins (Transduction Laboratories, Lexington, Ky.) were used for immunoprecipitation. The antibody TS2/16 was from Pierce. Antibodies to the extracellular domain of E-cadherin molecule were from Zymed (Carlsbad). Antibodies against extracellular signal-regulated kinase/MAPK, EGFR1, ERB2, GADPH and phosphorylated form of AKT were from Cell Signaling. Mouse monoclonal anti-phosphotyrosine (4G-10 clone) was from Upstate Biotechnology. Ptn and Tzv were added to culture medium at 2 μM.

## CN(C)CCCn1cc(C2=C(c3c[nH]c4ccccc34)C(=O)NC2=O)c2ccccc21 [bisindolylmaleimide I, reference compound]
hESCs [1]; in combination with Ptn
  effect on increased cell adhesion induced by Ptn: antagonize
hESCs [1]; in combination with Tzv
  effect on cell adhesion induced by Tzv: no effect

## CCCCCCCCCCCCCC(=O)O[C@@H]1[C@@H](C)[C@@]2(O)[C@@H](C=C(CO)C[C@]3(O)C(=O)C(C)=C[C@@H]23)[C@@H]2C(C)(C)[C@]12OC(C)=O [PMA, phorbol 12-myristate 13-acetate, reference compound]
hESCs [2]
  colony formation of dissociated hESCs: substantial increase
β1 integrin; dissociated hESCs, PMA 10 nM (FIG. 3k)
  integrin activation: integrin activation
hESCs [1]; PKC agonist treatment
  cell adhesion of dissociated hESCs: substantial increase

## O=S(=O)(NCC1CC1)c1ccc(Nc2nccc(N3CCCc4cc(O)ccc43)n2)cc1 [Ptn, N-(cyclopropylmethyl)-4-(4-(6-hydroxy-3,4-dihydroquinolin-1(2H)-yl)pyrimidin-2-ylamino)benzenesulfonamide]
hESCs [3]
  maintenance of hESC morphology, pluripotency markers and karyotype: maintained the characteristic morphology of hESCs, the expression of typical pluripotency markers, and normal karyotype
[4]
  survival and anti-differentiation of stem cells: effective in promoting survival and anti-differentiation
hESCs [5]
  survival of dissociated hESCs in adherent culture: promoted survival; also recorded: dramatic effect on survival
  survival of dissociated hESCs in suspension culture: no effect
ERK and AKT
  phosphorylation of ERK and AKT: increased
Growth factor receptor
  phosphorylation of growth factor receptor: significantly increased
[6]
  induction of MET and inhibition of EMT: induce MET (the reverse of EMT) and inhibit EMT
β1 integrin
  level of HUTS-21 binding (activated β1 integrin): increased
hESCs [1]
  adhesion of dissociated hESCs to Matrigel or laminin: dramatically increased adhesion
  adhesion of hESCs to gelatin or poly-lysine: not affected

## O=C(NCc1ccccc1)c1csc(Nc2ccncn2)n1 [Tzv, N-benzyl-2-(pyrimidin-4-ylamino)thiazole-4-carboxamide]
hESCs [3]
  maintenance of hESC morphology, pluripotency markers and karyotype: maintained the characteristic morphology of hESCs, the expression of typical pluripotency markers, and normal karyotype
[4]
  survival and anti-differentiation of stem cells: effective in promoting survival and anti-differentiation
E-cadherin; hESCs after trypsin dissociation
  full-length E-cadherin expression (Western blot): significantly increased
E-cadherin; hESCs after trypsin treatment
  cell surface E-cadherins (flow cytometry): significantly increased
E-cadherin; vs mock controls
  E-cadherin transcripts (semiquantitative RT-PCR): comparable amounts
hESCs [5]
  survival of dissociated hESCs in adherent culture: greatly improved survival; also recorded: dramatic effect on survival
  survival of dissociated hESCs in suspension culture: greatly improved survival
hESCs [5]; hESCs grown in suspension
  cell aggregate formation in suspension: formed nice cell aggregates
[7]; 3 μM, added 20 minutes after plating, observed 4 days, DMSO control
  axon outgrowth: dramatic effect in promoting axon outgrowth
[7]; primary neuronal cells from mice
  neurite outgrowth from primary neuronal cells: promote neurite outgrowth
[8]
  cell death of pancreatic islets/beta cells: cell death was inhibited
[6]
  induction of MET and inhibition of EMT: induce MET (the reverse of EMT) and inhibit EMT
β1 integrin
  level of HUTS-21 binding (activated β1 integrin): increased
hESCs [1]
  adhesion of dissociated hESCs to Matrigel or laminin: dramatically increased adhesion
  adhesion of hESCs to gelatin or poly-lysine: not affected
[9]
  binding of E-cadherins to EGFR1 and ERB2: induced binding
